Test results published in paper PMC11079024, “Identification of a family of species-selective complex I inhibitors as potential anthelmintics” (Nature Communications, 2024).
“And” between values parts separate entries of the source, which are not always exact repeats. Equal entries are not always repeated. Where two headings read alike, the source gives them in different places.

Biological target: C. elegans (N2) complex I (NADH:ubiquinone oxidoreductase) (Caenorhabditis elegans, UniProt P24887+Q93873+Q94360)
Experiment: biochemical
Format: biochemical
Conditions: for remaining activity at 0.125 µM / remaining activity at 0.313 µM / remaining activity at 0.625 µM / remaining activity at 1.5 µM / remaining activity at 3 µM / remaining activity at 15 µM / remaining activity at 37.5 µM / remaining activity at 75 µM: wild-type C. elegans mitochondria, read-out: percent (%) in vitro complex I activity relative to solvent control
Summary of the method: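 Mitochondria from liquid-cultured adults were freeze-thawed thrice before the 15-min DCIP-coupled NADH oxidation read.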

[1] = C. elegans, Mean of replicates, read-out: Complex I activity, dose-response data
[2] = C. elegans, individual replicates (Rep), read-out: Complex I activity, dose-response data

Sequence of C. elegans (N2) complex I (NADH:ubiquinone oxidoreductase) (Q94360 17-199): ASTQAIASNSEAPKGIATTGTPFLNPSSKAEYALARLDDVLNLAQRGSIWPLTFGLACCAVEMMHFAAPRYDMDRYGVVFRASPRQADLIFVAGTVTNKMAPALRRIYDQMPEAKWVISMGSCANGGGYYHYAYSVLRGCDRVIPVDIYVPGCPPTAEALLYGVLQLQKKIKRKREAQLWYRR
Sequence of C. elegans (N2) complex I (NADH:ubiquinone oxidoreductase) (P24887 whole entry): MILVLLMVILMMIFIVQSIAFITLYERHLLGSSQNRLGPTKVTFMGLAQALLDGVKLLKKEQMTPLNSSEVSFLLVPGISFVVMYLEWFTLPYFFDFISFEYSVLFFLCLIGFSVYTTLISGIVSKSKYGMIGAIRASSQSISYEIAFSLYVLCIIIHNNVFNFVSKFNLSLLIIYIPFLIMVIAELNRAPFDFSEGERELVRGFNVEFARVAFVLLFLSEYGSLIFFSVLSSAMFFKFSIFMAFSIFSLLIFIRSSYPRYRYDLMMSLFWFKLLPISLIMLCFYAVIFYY
Sequence of C. elegans (N2) complex I (NADH:ubiquinone oxidoreductase) (Q93873 31-482): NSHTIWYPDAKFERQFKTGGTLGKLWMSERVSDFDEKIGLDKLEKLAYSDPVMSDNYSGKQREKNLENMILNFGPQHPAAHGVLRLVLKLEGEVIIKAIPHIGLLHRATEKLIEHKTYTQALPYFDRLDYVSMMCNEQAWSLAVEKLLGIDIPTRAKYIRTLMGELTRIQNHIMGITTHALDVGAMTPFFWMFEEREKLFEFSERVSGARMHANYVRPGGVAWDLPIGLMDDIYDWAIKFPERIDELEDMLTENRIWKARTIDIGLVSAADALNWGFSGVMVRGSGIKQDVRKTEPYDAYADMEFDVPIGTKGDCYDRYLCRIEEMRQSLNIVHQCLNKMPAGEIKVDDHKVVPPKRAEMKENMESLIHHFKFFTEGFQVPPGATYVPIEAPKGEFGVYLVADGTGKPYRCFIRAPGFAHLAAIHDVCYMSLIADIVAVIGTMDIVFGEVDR

COc1cc2c(cc1OC)C(c1ccc(-c3ccc(Cl)c(Cl)c3)o1)=NCC2 [NPD3577]
remaining activity at 0.125 µM (mean of replicates): 96.8%
remaining activity at 0.125 µM (single replicate): 96.7%
remaining activity at 0.313 µM (mean of replicates): 92.4%
remaining activity at 0.313 µM (single replicate): 92.5%
remaining activity at 0.625 µM (mean of replicates): 100%
remaining activity at 0.625 µM (single replicate): 100%
remaining activity at 1.5 µM (mean of replicates): 94.3%
remaining activity at 1.5 µM (single replicate): 96.2%
remaining activity at 3 µM (mean of replicates): 92.6%
remaining activity at 3 µM (single replicate): 93.9%
remaining activity at 15 µM (mean of replicates): 62.2%
remaining activity at 15 µM (single replicate): 62.5%
remaining activity at 37.5 µM (mean of replicates): 42.6%
remaining activity at 37.5 µM (single replicate): 37.8%
remaining activity at 75 µM (mean of replicates): 40.7%
remaining activity at 75 µM (single replicate): 36.7%
activity at 100 µM (100 µM compound, relative to solvent control, mean (SEM), read-out: % Activity Complex I): 36.8%
Percent in vitro activity, Complex I (single replicate Rep1-Rep4) (100 μM of NPD compound, C. elegans mitochondria, individual biological replicates, 100 µM): 43.782% and 34.898% and 43.141%
activity at 100 µM (100 μM of NPD compound, C. elegans mitochondria, individual biological replicates, read-out: Percent in vitro activity, Complex I (single replicate Rep1-Rep4)): 25.5%
activity at 100 µM (100 μM of NPD compound, C. elegans mitochondria, mean of four biological replicates, read-out: Percent in vitro activity, Complex I (Mean)): 36.8%
activity at 0.0001 µM [1]: 100%
activity at 0.0001 µM [2]: 100%
activity at 0.0005 µM (C. elegans, dose 0.0005 µM, Mean of replicates, read-out: Complex I activity, dose-response data): 101%
Complex I activity, dose-response data (C. elegans, dose 0.0005 µM, individual replicates (Rep)): 102.944 and 101.488 and 99.964
activity at 0.0005 µM (C. elegans, dose 0.0005 µM, individual replicates (Rep), read-out: Complex I activity, dose-response data): 99.8%
activity at 0.001 µM (C. elegans, dose 0.001 µM, Mean of replicates, read-out: Complex I activity, dose-response data): 107%
Complex I activity, dose-response data (C. elegans, dose 0.001 µM, individual replicates (Rep)): 100.123 and 101.601 and 102.139 and 122.392
activity at 0.0025 µM (C. elegans, dose 0.0025 µM, Mean of replicates, read-out: Complex I activity, dose-response data): 108%
Complex I activity, dose-response data (C. elegans, dose 0.0025 µM, individual replicates (Rep)): 107.455 and 110.182 and 112.130
activity at 0.0025 µM (C. elegans, dose 0.0025 µM, individual replicates (Rep), read-out: Complex I activity, dose-response data): 102%
activity at 0.005 µM (C. elegans, dose 0.005 µM, Mean of replicates, read-out: Complex I activity, dose-response data): 104%
Complex I activity, dose-response data (C. elegans, dose 0.005 µM, individual replicates (Rep)): 104.715 and 108.539 and 101.437
activity at 0.005 µM (C. elegans, dose 0.005 µM, individual replicates (Rep), read-out: Complex I activity, dose-response data): 100%
activity at 0.013 µM (C. elegans, dose 0.013 µM, Mean of replicates, read-out: Complex I activity, dose-response data): 97.9%
Complex I activity, dose-response data (C. elegans, dose 0.013 µM, individual replicates (Rep)): 98.157 and 103.636 and 111.482 and 78.345
activity at 0.025 µM (C. elegans, dose 0.025 µM, Mean of replicates, read-out: Complex I activity, dose-response data): 98.1%
Complex I activity, dose-response data (C. elegans, dose 0.025 µM, individual replicates (Rep)): 97.798 and 102.639 and 113.034 and 78.823
activity at 0.063 µM (C. elegans, dose 0.063 µM, Mean of replicates, read-out: Complex I activity, dose-response data): 101%
Complex I activity, dose-response data (C. elegans, dose 0.063 µM, individual replicates (Rep)): 101.240 and 102.785 and 102.967
activity at 0.063 µM (C. elegans, dose 0.063 µM, individual replicates (Rep), read-out: Complex I activity, dose-response data): 97%
activity at 0.125 µM (C. elegans, dose 0.125 µM, Mean of replicates, read-out: Complex I activity, dose-response data): 96.8%
Complex I activity, dose-response data (C. elegans, dose 0.125 µM, individual replicates (Rep)): 97.708 and 99.291 and 93.354
activity at 0.125 µM (C. elegans, dose 0.125 µM, individual replicates (Rep), read-out: Complex I activity, dose-response data): 96.7%
activity at 0.313 µM (C. elegans, dose 0.313 µM, Mean of replicates, read-out: Complex I activity, dose-response data): 92.4%
Complex I activity, dose-response data (C. elegans, dose 0.313 µM, individual replicates (Rep)): 97.105 and 93.945 and 86.205
activity at 0.313 µM (C. elegans, dose 0.313 µM, individual replicates (Rep), read-out: Complex I activity, dose-response data): 92.5%
activity at 0.625 µM [1]: 100%
activity at 0.625 µM [2]: 100%
activity at 1.5 µM (C. elegans, dose 1.5 µM, Mean of replicates, read-out: Complex I activity, dose-response data): 94.3%
Complex I activity, dose-response data (C. elegans, dose 1.5 µM, individual replicates (Rep)): 94.111 and 90.424 and 96.414
activity at 1.5 µM (C. elegans, dose 1.5 µM, individual replicates (Rep), read-out: Complex I activity, dose-response data): 96.2%
activity at 3 µM (C. elegans, dose 3 µM, Mean of replicates, read-out: Complex I activity, dose-response data): 92.6%
Complex I activity, dose-response data (C. elegans, dose 3 µM, individual replicates (Rep)): 91.612 and 93.694 and 91.331
activity at 3 µM (C. elegans, dose 3 µM, individual replicates (Rep), read-out: Complex I activity, dose-response data): 93.9%
